Reference: publication PMC8205491, “Tetrahydroxanthohumol, a xanthohumol derivative, attenuates high-fat diet-induced hepatic steatosis by antagonizing PPARγ” (eLife, 2021)

Target: T1, PPARγ (Homo sapiens, UniProt P37231)
T1 construct: gene PPARG
T1 sequence (P37231 235-505 limits assumed): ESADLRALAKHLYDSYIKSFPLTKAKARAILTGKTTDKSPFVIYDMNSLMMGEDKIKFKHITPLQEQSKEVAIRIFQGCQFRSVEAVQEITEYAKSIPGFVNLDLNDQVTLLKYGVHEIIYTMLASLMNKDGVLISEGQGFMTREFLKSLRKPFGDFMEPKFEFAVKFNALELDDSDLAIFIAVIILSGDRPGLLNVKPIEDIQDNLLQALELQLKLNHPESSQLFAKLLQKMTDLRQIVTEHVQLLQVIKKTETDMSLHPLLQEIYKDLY
Assay: LanthaScreen TR-FRET competitive binding assay (displacement of Fluormone Pan-PPAR Green)

Compound	IC50 [nM]
CCCCCCCC/C=C\CCCCCCCC(=O)O [Oleic acid]	16600
COc1cc(O)c(CCC(C)C)c(O)c1C(=O)CCc1ccc(O)cc1 [TXN, Tetrahydroxanthohumol]	1380
COc1cc(O)c(CC=C(C)C)c(O)c1C(=O)/C=C/c1ccc(O)cc1 [XN, Xanthohumol]	1970
